Measurements: PubChem BioAssay (NCI)
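The compound was tested at five concentrations on cells cultured in 96-well plates, with a 48-hour exposure period. The concentration for 50% growth inhibition is given as GI50. TGI marks complete inhibition of growth.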

Tests used:
Assay in all cases: NCI-60 cell line screen, 48 h
K-562 leukemia = test system: K-562 leukemia
NCI-H23 lung = test system: NCI-H23 lung
RXF 393 renal = test system: RXF 393 renal
SK-OV-3 ovarian = test system: SK-OV-3 ovarian
HCC-2998 colon = test system: HCC-2998 colon
UACC-62 melanoma = test system: UACC-62 melanoma
OVCAR-3 ovarian = test system: OVCAR-3 ovarian
HOP-92 NSCLC = test system: HOP-92 NSCLC
IGROV1 ovarian = test system: IGROV1 ovarian
PC-3 prostate = test system: PC-3 prostate

| SMILES | TGI (K-562 leukemia) [µM] | TGI (NCI-H23 lung) [µM] | TGI (RXF 393 renal) [µM] | TGI (SK-OV-3 ovarian) [µM] | TGI (HCC-2998 colon) [µM] | TGI (UACC-62 melanoma) [µM] | TGI (OVCAR-3 ovarian) [µM] | TGI (HOP-92 NSCLC) [µM] | TGI (IGROV1 ovarian) [µM] | TGI (PC-3 prostate) [µM] | GI50 (K-562 leukemia) [µM] | GI50 (NCI-H23 lung) [µM] | GI50 (RXF 393 renal) [µM] | GI50 (SK-OV-3 ovarian) [µM] | GI50 (HCC-2998 colon) [µM] | GI50 (PC-3 prostate) [µM] | GI50 (UACC-62 melanoma) [µM] | GI50 (OVCAR-3 ovarian) [µM] | GI50 (HOP-92 NSCLC) [µM] | GI50 (IGROV1 ovarian) [µM] |
| --- | --- | --- | --- | --- | --- | --- | --- | --- | --- | --- | --- | --- | --- | --- | --- | --- | --- | --- | --- | --- |
| COc1c2ccoc2c(S(=O)(=O)Nc2ccc(Cl)cc2)c2oc(C)cc(=O)c12 | > 100 | > 100 | > 89.1 | > 100 | > 100 | > 100 | > 100 | > 93.6 | > 100 | – | – | – | – | – | – | – | – | – | – | – |
| Cc1onc(-c2c(F)cccc2Cl)c1C(=O)N[C@@H]1C(=O)N2[C@@H]1SC(C)(C)[C@@H]2C(=O)O | > 100 | > 100 | > 100 | > 100 | – | > 100 | > 100 | > 100 | > 100 | > 100 | – | – | – | – | – | – | – | – | – | – |
| FC(F)(F)C1=NC(=NNc2nnc(-c3ccccc3)c(-c3ccccc3)n2)N=C(C(F)(F)F)C1 | > 100 | > 100 | > 100 | > 100 | > 88.9 | 30 | > 100 | > 87.3 | > 100 | – | – | – | – | – | – | – | – | – | – | – |
| O=C(/N=C/c1c(O)c2ccccc2oc1=O)NC1CCCCC1 | – | > 100 | > 100 | – | > 100 | > 100 | – | > 100 | > 100 | – | – | – | – | – | – | – | – | – | – | – |
| CCOC(=O)[C@H]1C[C@]23CN(C(=O)OC(C)(C)C)CC[C@H]2CCC2(SCCCS2)[C@@H]3N1C | > 100 | > 100 | 99.7 | > 100 | 65.4 | > 100 | > 100 | 51 | > 100 | 89.9 | – | – | – | – | – | – | – | – | – | – |
| OC1(c2ccc3ccccc3c2)c2ccc3ccccc3c2C2=NCCN21 (centres undefined) | > 100 | > 100 | 98.5 | > 100 | > 100 | > 100 | > 100 | > 100 | > 100 | > 100 | – | – | – | – | – | – | – | – | – | – |
| Cc1ccc(S(=O)(=O)NCCSS(=O)(=O)c2ccc(C)cc2)cc1 | > 100 | > 100 | 99.3 | > 100 | > 100 | – | – | > 100 | – | 94.8 | – | – | – | – | – | – | – | – | – | – |
| CC[N+](CC)(CC)/C(=N/S(=O)(=O)c1cc(C)c(Cl)cc1S)[N-]S(=O)(=O)c1ccc(Cl)cc1 | > 100 | > 100 | > 100 | > 100 | > 100 | – | > 100 | 49.7 | > 100 | > 100 | – | – | – | – | – | – | – | – | – | – |
| C=C1C(=O)OC2/C=C(\C)CC(O)/C=C(/CO)CC(OC(=O)/C(C)=C/C)C12 (centres undefined) | 64.4 | 136 | 44.5 | 309 | 134 | 274 | 122 | 111 | 121 | – | – | – | – | – | – | – | – | – | – | – |
| ClCC1(CCl)COC1 | > 100 | > 100 | > 100 | > 100 | > 100 | – | > 100 | > 100 | – | > 100 | – | – | – | – | – | – | – | – | – | – |
| C[C@H](O)C(=O)SC[C@H](NC(=O)CC[C@@H](N)C(=O)O)C(=O)NCC(=O)O | > 100 | > 100 | > 100 | > 100 | > 100 | > 100 | > 100 | > 100 | > 100 | – | – | – | – | – | – | – | – | – | – | – |
| CCCc1ccc(OCC(=O)N/N=C/c2c(-c3ccccc3)[nH]c3ccccc23)cc1 | 23.1 | 38.2 | 28.8 | > 100 | 14.1 | 26.3 | 95.2 | 35.3 | 65.8 | 29.4 | – | – | – | – | – | – | – | – | – | – |
| CCOc1cc(NC(C)=O)ccc1C(=O)NN1C(=O)CSC1c1ccc(O)c(OC)c1 (centres undefined) | > 100 | > 100 | > 100 | > 100 | > 100 | > 100 | > 100 | > 100 | > 100 | > 100 | – | – | – | – | – | – | – | – | – | – |
| CN(C)CCC(C(=O)C(C)(C)C)c1ccccn1 (centres undefined) | > 100 | > 100 | > 100 | > 100 | > 100 | > 100 | 93.6 | > 100 | > 100 | > 100 | – | – | – | – | – | – | – | – | – | – |
| C[C@]12CC[C@H](O)CC1=CC[C@@H]1[C@@H]2CC[C@]2(C)C(=O)CC[C@@H]12 | – | > 100 | > 100 | > 100 | > 100 | > 100 | > 100 | – | – | > 100 | – | – | – | – | – | – | – | – | – | – |
| C=CCC1=CC2(OC)C(=O)C(OC)(OC)C1C1C(OC)(OC)C(=O)C(OC)=CC12CC=C (centres undefined) | > 100 | > 100 | > 100 | > 100 | > 100 | > 100 | > 100 | > 100 | > 100 | > 100 | – | – | – | – | – | – | – | – | – | – |
| CO[C@]12C[C@H](CNC(=O)c3cc(Br)c(Br)[nH]3)O[C@H]1NC(=O)N2 | > 100 | > 100 | – | > 100 | > 100 | > 100 | > 100 | > 100 | > 100 | > 100 | – | – | – | – | – | – | – | – | – | – |
| CC(O)=NC(Cc1ccc2ccccc2c1)C(O)=NC(Cc1ccc(Cl)cc1)C(O)=NC(Cc1c[nH]c2ccccc12)C(O)=NC(CO)C(O)=NC(Cc1ccc(O)cc1)C(O)=NC(CCCN=C(N)N)C(O)=NC(CC(C)C)C(O)=NC(CCCN=C(N)N)C(=O)N1CCCC1C(O)=NC(C)C(=N)O (centres undefined) | > 100 | > 100 | 92.2 | 72.3 | > 100 | > 100 | > 100 | > 100 | > 100 | > 100 | – | – | – | – | – | – | – | – | – | – |
| NC(N)=N/N=C/c1ccc(O)c(C(=O)O)c1 | > 100 | > 100 | > 100 | > 100 | > 100 | > 100 | > 100 | > 100 | > 100 | > 100 | – | – | – | – | – | – | – | – | – | – |
| COc1ccc(-n2cc(-c3ccc(OC)c(OC)c3)nc2SCc2ccccc2)cc1Cl | 39.3 | > 100 | 82 | > 100 | 45.5 | > 100 | > 100 | 38.6 | > 100 | > 100 | 9.05 | 22.7 | 16.9 | 66.6 | 19.3 | 13.8 | 20.8 | 20.6 | 6.13 | 12.9 |
| COc1cc(NCc2ccc3n2-c2ccccc2OC3)cc(OC)c1OC | 27.6 | > 100 | 87.5 | – | 51.6 | 43.4 | 75.5 | 51.3 | 70.5 | 87.1 | – | – | – | – | – | – | – | – | – | – |
| Oc1ccc2ccccc2c1Cc1c(O)ccc2ccccc12 | 32.8 | 37.8 | 36 | 35 | 40.6 | 29.4 | 28.4 | – | 13.4 | 35.1 | – | – | – | – | – | – | – | – | – | – |
